Experimental data taken from US20140315975A1, “APOPTOSIS-INDUCING AGENT” (NITTO DENKO CORPORATION, priority 2011, published 2014).

Tests used:
Type in all cases: cell-based
[1] = tested on: GST-π; test: Western blot analysis of GST-π knockdown; conditions: M7609 cells
Procedure: On the day before transfection, M7609 cells were plated on a 100 mm plastic tissue culture dish using 10% FBS-containing RPMI-1640 medium containing no antibiotic so as to give 1×10^6 cells/10 mL. 600 pmol of GST-π siRNA (SEQ ID No: 1: […], siRNA ID#2385, Ambion) was added to 1 mL of Opti-MEM I Reduced Serum Medium (GIBCO) and mixed gently. Subsequently, 35 μL of Lipofectamine RNAiMAX (Invitrogen) was diluted in 1 mL of Opti-MEM I Reduced Serum Medium and mixed gently. The diluted GST-π siRNA and the diluted Lipofectamine RNAiMAX were combined and gently mixed, and then incubated at room temperature for 10 min. During this time, the medium was replaced with 10 mL of Opti-MEM I Reduced Serum Medium. After the 10 min. incubation, the complex between GST-π siRNA and Lipofectamine RNAiMAX was added to the cells and incubated at 37° C. under an atmosphere containing 5% CO2. After 5 hours incubation, it was replaced with 10 mL of 10% FBS-containing RPMI-1640 medium containing no antibiotic. […] On the 1st, 2nd, 3rd, and 4th days after transfection with GST-π siRNA, the number of cells was counted, and knockdown of GST-π was examined. Knockdown of GST-π was analyzed by a western blot method as described below.
Western blot analysis of GST-π knockdown was carried out using cells harvested at above-mentioned each point of time after transfection with GST-π siRNA. […] The cell extract thus obtained was subjected to quantitative protein analysis using a Micro BCA Protein Assay Kit (Thermo SCIENTIFIC) (GST-π siRNA transfectant: 4.35 μg/μL, Scramble siRNA transfectant: 4.56 μg/μL). […] A reaction with a chemiluminescent substrate was then carried out at room temperature for 1 min., and then this chemiluminescence was detected using an X-ray film. Washing between operations was carried out three times by shaking for 5 min using PBS-T. Furthermore, after transfection with siRNA, plating on a 60 mm plastic tissue culture dish was carried out to give 1.0×10^5 cells/5 mL, and the total cell count in the dish was measured using a hemocytometer up to the 4th day.

[2] = tested on: M7609 cells; test: Autophagy induction by electron microscope examination; conditions: 2 days after transfection, electron microscope (FIG. 7)
Procedure: On the 1st day after siRNA transfection in Example 1 (2), the cells were plated on an 8-well culture slide for tissue culture so as to give 0.4×10^5 cells/0.5 mL. Fixation was carried out using 2.5% glutaraldehyde in 0.1 M cacodylic acid buffer (pH 7.4) for hour, and after rinsing with 0.1 M cacodylic acid buffer post-fixation was carried out using 1% OsO4 and 1.5% potassium ferrocyanide for 2 hours. After dehydration was carried out three times with ethanol for 10 min., embedding in an epoxy resin (TAAB Laboratories Equipment) was carried out. An ultrathin section was prepared using a diamond knife, electron staining was carried out using uranyl acetate and lead citrate, and the section was examined using an electron microscope (Hitachi Transmission Electron Microscope H-7500, Hitachi High-Technologies Corporation).

[3] = tested on: EGFR/PI3K/Akt/mTOR signal cascade; test: Western blot of EGFR/PI3K/Akt/mTOR signal; conditions: M7609 cells, compared with Scramble siRNA (FIG. 11)
Procedure: Expression of each protein constituting the EGFR/PI3K/Akt/mTOR signal cascade was analyzed in the same way as for Example 1 (1), (2), and (4) except that, as primary antibodies, anti-p-EGFR (Tyr1068) antibody (Cell Signaling), anti-EGFR antibody (Santa Cruz), anti-p-PI3K p85 (Tyr458)/p55 (Tyr199) antibody (Cell Signaling), anti-PI3K, p85 antibody (MILLIPORE), anti-p-Akt (Ser473) antibody (Cell Signaling), anti-Akt antibody (Cell Signaling), anti-p-p70S6K (Thr389) antibody (Cell Signaling), anti-p-p70S6K (Thr421/Ser424) antibody (Cell Signaling), and anti-p70S6K antibody (Cell Signaling) were used.

[4] = tested on: LC3; test: Autophagy induction by LC3 western blotting; conditions: M7609 cells, western blot with anti-LC3 antibody (FIG. 8)
Procedure: Induction of autophagy in GST-π knockdown cells was further analyzed by a western blot analysis of LC3. GST-π knockdown cells obtained by the procedure of Example 1 (2) were plated on a cover slip placed in a 35 mm plastic tissue culture dish so as to give 1×10^5 cells/2 mL. After incubating for a predetermined time, a cell extract was collected and subjected to a western blot analysis. A reaction with a transfer membrane was carried out at 4° C. for 16 hours using anti-LC3B antibody (SIGMA) as a primary antibody. Detection of LC3 molecules was carried out using a chemoluminescent reagent after a reaction with HRP-labeled secondary antibody. Whether or not autophagy was induced was evaluated by a shift of LC3 from type I (18 kDa) to type II (16 kDa).

With “GST-π siRNA: GST-π siRNA (SEQ ID No: 1: GGGAGGCAAGACCUUCAUUTT, siRNA ID#2385, Ambion) (chemistry not given here)” the “expression of GST-π” value ([1]; 4 days after transfection (FIG. 1b)) was “still stably suppressed”, the “expression of GST-π” value ([1]; siRNA transfection, western blot (FIG. 1a)) was “suppressed” and the autophagosome formation [2] was “autophagosome was formed”. The “phosphorylation of each protein constituting the EGFR/PI3K/Akt/mTOR signal cascade” value [3] was “reduced” and the “expression of type II LC3” value [4] was “markedly increased”.
